Data: patent US20250195431A1, “LIPID NANOPARTICLES FOR TARGETED DELIVERY OF MRNA” (Trustees of Tufts College, priority 2022, published 2025)

Assays:
IFN-γ-secreting T cells = experiment: T cell response by ELISPOT after two doses of spike mRNA/LNP; set-up: species or system mice; conditions: mouse, in vivo
Exon 6 of Angltl 3 = experiment: Base editing with mRNA encoding ABE8e and sgRNA_SA or sgRNA_SD using lipids (306O12B, L88 and L10); conditions: among 306O12B
IgG anti-spike antibody = type: in vivo; conditions: mice, I.M., two doses
Angptl3 = experiment: ABE8e mRNA/sgRNA/LNPs injected to rodents: base editing and serum biomarkers; conditions: in vivo
Procedure: Significance measured with one way ANOVA. *P<0.05 **P<0.01 ***P<0.001 ****P<0.0001.
Blood taken on day 7. […] Significance measured with one way ANOVA *P<0.05 **P<0.01 ***P<0.001 ****P<0.0001.
Significance measured by one-way ANOVA.
Next LNPs (e.g., ABE8e mRNA/sgRNA/LNPs comprising lipid 88) were injected to rodents. In some cases, one dose of 3 mg/kg LNPs was administered. In some cases, 2 doses of 3 mg/kg LNPs were administered 48 hours apart. […] Significance measured with one way ANOVA. *P<0.05 **P<0.01 ***P<0.001 ****P<0.0001. Seven days post administration of the LNPs, blood samples were collected from treated animals, and various biomarkers were measured, including Angptl3, cholesterol, triglyceride, ALT, AST, and IL-6. […] Significance measured with one way ANOVA *P<0.05 **P<0.01 ***P<0.001 ****P<0.0001. […] Significance measured with one way ANOVA *P<0.05 **P<0.01 ***P<0.001 ****P<0.0001. […] Significance measured by one-way ANOVA. […] Significance measured by one-way ANOVA.

[1] = test system: Firefly luciferase expression; experiment: In vivo optimization of Lipid 88 formulations, intramuscular (I.M.) administration, bioluminescence; set-up: species or system mice; conditions: mouse
Procedure: Various formulations of mRNA/LNPs comprising lipid 88 were tested in vivo, including a plurality of ratios of ionizable lipids to helper lipids, and ratios of RNA to lipids. […] The luc mRNA/LNPs were then given to both adult and neonatal mice via various routes of administration (e.g., intravenously, intramuscularly, or through facial vein). After a period of time post injection (e.g., 6-80 hours), substrates of luciferase were administered to the animals and whole-body imaging was performed using IVIS imaging system.

| SMILES | T cell response (ELISPOT), comparison of LNPs (IFN-γ-secreting T cells) | transfection and editing efficiency (Exon 6 of Angltl 3) [%] | anti-spike IgG titer (ELISA), comparison of LNPs (IgG anti-spike antibody) | percent of base editing, single dose vs double dose (Angptl3) | delivery of luc mRNA (bioluminescence over time) [1] |
| --- | --- | --- | --- | --- | --- |
| CCCCCCCCSSCCOC(=O)CCN(CCCN(C)CCCN(CCC(=O)OCC(CC)CCCC)CCC(=O)OCC(CC)CCCC)CCC(=O)OCC(CC)CCCC (stereo not drawn) [Lipid 65] | highest T cell response | – | – | – | – |
| CCCCCCC(CCCC)COC(=O)OCCOC(=O)CCN(CCCN(C)CCCN(CCC(=O)OCCOC(=O)OCC(CCCC)CCCCCC)CCC(=O)OCCOC(=O)OCC(CCCC)CCCCCC)CCC(=O)OCCOC(=O)OCC(CCCC)CCCCCC (stereo not drawn) [Lipid 88] | highest T cell response | ~60 | highest anti-spike IgG titer | maximal editing was reached with single dose | enhanced delivery of luc mRNA to the mice compared with LNPs formulated with 113O12B |
